Test results reported in patent US4399137A, “6-Imidazol-1-yl-3-hydrazino-pyridazines, their preparation and antihypertensive use” (BASF Aktiengesellschaft, priority 1979, dated 1983).
Read-outs that look alike come from different tables or passages of the source.

Tests used:
[1] = system: narcotized rats; experiment: Hypotensive action (blood pressure lowering) on narcotized rats, intravenous administration; assay type: in vivo, rat (Sprague Dawley); settings: for ED20: Rattus norvegicus, dose producing a 20% lowering of blood pressure, read-out: Hypotensive action ED 20%; for ED20 / Hypotensive action R.E. (relative effectiveness) / factor by which blood pressure-lowering doses are lower than the dihydralazine doses: narcotized rats; for ED20 / Hypotensive action R.E. (relative effectiveness): intravenous; for Hypotensive action R.E. (relative effectiveness): dihydralazine = 1.00; for blood pressure-lowering properties (in words): general statement, no specific model named; for factor by which blood pressure-lowering doses are lower than the dihydralazine doses: relative to dihydralazine
Experimental: The blood pressure was measured in the […]. The substance was administered into the jugular vein (using 1 ml/kg of an aqueous solution). The ED 20% was determined, as the dose producing a 20% lowering of blood pressure, from the linear regression between the logarithm of the dose (mg/kg) and the relative lowering of the blood pressure (Δ%).

[2] = system: spontaneously hypertonic rats; experiment: Anti-hypertensive action on spontaneously hypertonic rats (SHR), oral administration; assay type: in vivo, rat (Okamoto; settings: for ED20: Rattus norvegicus, dose which lowers systolic pressure by 20%, 2 hours after administration, read-out: Anti-hypertensive action ED 20%; for ED20 / Anti-hypertensive action R.E. (relative effectiveness): SHR, oral; for Anti-hypertensive action R.E. (relative effectiveness): dihydralazine = 1.00; for times as effective as dihydralazine: wake spontaneously hypertonic rats
Experimental: The anti-hypertensive action was determined on spontaneously hypertonic rats (Okamoto). The substances were administered orally to groups of from 4 to 8 male animals. Before, and 2 hours after, administration, the systolic blood pressure was measured on the tail of the rat by means of a piezoelectric crystal sensor. The ED 20 was determined, as the dose which lowers the systolic pressure by 20%, from the linear regression between the logarithm of the dose (mg/kg) and the relative lowering of blood pressure (Δ%), with due account taken of the values found with placebo-treated control animals.

[3] = Acute toxicity (LD 50), intraperitoneal administration; assay type: in vivo; settings: mouse, in vivo; for LD50 at 168 h: ip, mice, intraperitoneal, 50% of the animals died within 7 days
Experimental: (§1) To determine the acute toxicity (LD 50), the substances were administered intraperitoneally to groups of 10 female NMRI mice (weighing 20-25 g each).
(§2) The LD 50 was computed (by Probit analysis) as the dose after which 50% of the animals died within 7 days.

[4] = system: mice; experiment: as above; assay type: in vivo; settings: mice, intraperitoneal; dihydralazine = 1.00
Experimental: as §1, §2

[5] = ratio LD 50 / anti-hypertensive dose, read-out: toxic doses (LD 50) times as great as the anti-hypertensive doses
[6] = LD 50 (mice, i.p.) relative to anti-hypertensive ED 20% (SHR, oral), read-out: Therapeutic range Q

| Structure (SMILES) | ED20 [1] [mg/kg] | Hypotensive action R.E. (relative effectiveness) [1] | ED20 [2] [mg/kg] | Anti-hypertensive action R.E. (relative effectiveness) [2] | LD50 at 168 h [3] [mg/kg] | selectivity ratio [3, 5] | selectivity ratio [3, 6] | Toxicity R.E. [4] | blood pressure-lowering properties (in words) [1] | factor by which blood pressure-lowering doses are lower than the dihydralazine doses [1] | times as effective as dihydralazine [2] |
| --- | --- | --- | --- | --- | --- | --- | --- | --- | --- | --- | --- |
| NNc1nnc(NN)c2ccccc12 [Dihydralazine, dihydralazine, reference compound] | 0.0854 | 1.00 | 6.85 | 1.00 | 206 | 30 | 30.1 | 1.00 | – | – | – |
| Cc1nccn1-c1ccc(NN)nn1 [Example 1 a, 3-Hydrazino-6-(2-methyl-imidazol-1-yl)-pyridazine] | 0.031 | 2.75 | 1.41 | 4.86 | 193 | – | 137 | 1.06 | Particularly active | 2.8 | 4.9 |
| CCc1nccn1-c1ccc(NN)nn1 [Example 1 c, 3-Hydrazino-6-(2-ethyl-imidazol-1-yl)-pyridazine] | 0.0638 | 1.34 | 2.91 | 2.35 | 156 | – | 53.6 | 1.32 | Particularly active | 1.3 | 2.4 |
| CC(C)=NNc1ccc(-n2ccnc2C)nn1 [Example 2 a, 3-(2-Isopropylidene-hydrazino)-6-(2-methyl-imidazol-1-yl)-pyridazine] | 0.0464 | 1.84 | 2.46 | 2.78 | 98.6 | 40 | 40.1 | 2.09 | Particularly active | – | – |
| CCc1nccn1-c1ccc(NN=C(C)C)nn1 [Example 2 b, 3-(2-Isopropylidene-hydrazino)-6-(2-ethyl-imidazol-1-yl)-pyridazine] | 0.0464 | 1.84 | 2.48 | 2.76 | 124 | – | 50.1 | 1.66 | Particularly active | – | – |
